Results from patent publication US20260207632A1, “C[…] THERAPY” (KINGDOM THERAPEUTICS LIMITED, priority 2022, published 2026).

Tests used:
rat VPA model of autism [1] = test: Irritability-like behaviour: bottle-brush test (P30) in VPA rat model; type: in vivo; parameters: key to bottle brush irritability: +: improvement; Ø: no change
Protocol: (§1) In the first study, a sub-chronic 8-day dosing schedule was employed with the test compound CBD administered alone (10, 30 and 60 mg/kg, p.o. VPA/CBD; dose volume 5 ml/kg). Control animals were administered sterile saline (0.9% w/v, i.p.) in utero and the vehicle control (ethanol: Kolliphor HS-15:0.9% saline (1:1:18, v/v/v) p.o. VEH/VEH). The test compound and vehicle control were administered to the animals once daily for 7 days prior to, and once again on each day of behavioural assessment, 60 minutes prior to test which consisted of a battery of behavioural paradigms: P30 social play and bottle brush test, P31-32 open field exploratory behaviour. A reference positive control, the atypical antipsychotic risperidone (0.125 mg/kg, i.p., once per day for 8 days prior to and for duration of behavioural testing), was included in study one for comparison. Subsequent to behavioural analysis the effect of CBD on gastrointestinal permeability was evaluated four hours following oral administration of fluorescein isothiocyanate-labelled dextran measured in plasma on postnatal day 33. On postnatal day 34, 60 minutes post a final treatment with the test agents, animals were humanely euthanised and samples collected to evaluate inflammatory biomarkers, gastrointestinal function and histology. 5 In the second study, the sub-optimal dose of CBD (30 mg/kg, p.o.) was evaluated in combination with administration of THC at increasing concentration (0.75, 1.5 and 3 mg/kg, p.o. VPA/CBD+THC). Comparison was made to CBD administered alone at the sub-optimal and effective doses (30 and 60 mg/kg, p.o.) and to vehicle controls as per study one. Behavioural and gastrointestinal readouts were examined as per study one with terminal samples collected on the final day of the experiment.
To test irritability-like behaviour we employed the bottle-brush test modified for rats (Riittinen et al. 1986). Irritability-like behaviour was examined by measuring aggressive and defensive responses during the bottle-brush test carried out in juvenile animals immediately after play behaviour evaluation at P30. Irritability-like behaviour testing was performed under dark conditions with a red light and infrared camera recording (Kononoff et al., 2018). Testing consisted of 10 trials per rat in plastic cages (377×325×170 mm) with fresh bedding. During each trial, the rat was placed at the back of the cage. A bottle-brush was rotated toward the animal's whiskers (from the front of the cage). The brush was rotated around the whiskers of the rat for approximately 1 second. The brush was then rotated back to the front of the cage where it hung vertically for approximately 2 seconds, during which behavioural responses were recorded. An intertrial interval of 10 seconds was used, with each new trial started with the animal returned to the back of the cage. All testing was conducted in the morning, starting at 09.00 and concluded before 12.00.
Employing video analysis of the test the following were scored as aggressive responses: smelling the brush, biting the brush (during the initial phase of rotating the brush forward and back to the starting position), boxing the target, following the brush, exploring the brush (using paws or mouth to manipulate the brush without biting or boxing), mounting the brush, and delayed biting (during the 2 s that the brush hung at the starting position). The following were scored as defensive responses: escaping from the brush, digging, burying, jumping, climbing, vocalization, freezing, and grooming. Grooming and digging were additionally recorded during the 10 second intertrial intervals. Frequency and total time engaged in each behaviour and the sum of aggressive and defensive behaviours, referred to as the irritability score (Kononoff et al, 2018), were recorded.

rat VPA model of autism [2] = test: Juvenile social play behaviour (P30) in the in utero valproic acid (VPA) rat model of autism; type: in vivo; parameters: key to play behaviour: +: improvement; Ø: no change
Protocol: Time-mated female Wistar rats were administered a single dose of valproic acid (VPA, 600 mg/kg, i.p.) on gestational day 12.5 (VPA/VEH). To determine behavioural deficits in the VPA autism model, male offspring were tested at juvenile (postnatal day 30) for the presence of abnormal behaviours associated with autism e.g., decreased sociability and increased irritability.
as §1
Time-mated female Wistar Han Rcc rats (Envigo, UK) were administered a single dose of valproic acid (VPA, Sigma Aldrich, Ireland, lot no. MKCB2699V, 600 mg/kg, i.p.) or vehicle (0.9% saline i.p.) on gestational day 12.5. Confirmation of the VPA induced developmental deficit was rapidly achieved by examination of characteristic “tail kinks” observed in all of the juvenile animals exposed to VPA. Litters were normalised to 8 animals and to male offspring at postnatal day 3. Male pups were cross fostered to make up the uniform litter size of eight. Male offspring were housed as per standard laboratory conditions until time of experimental use. Vehicle-treated control animals were employed as controls, with animals for both parts of the study prepared together. At weaning, animals were allocated into test groups according to a balanced design based on weight and litter to distribute these equally across each treatment group. Animals were introduced to the experimental holding rooms prior to the commencement of the study, housed in groups of 4 during this period in soft bottomed cages with sawdust bedding material, with enrichment consisting of nesting material, cardboard tubes and Perspex internal shelter, and maintained at 22-24° C. on a standard 12-hour light/dark cycle (07.30-19.30), with food and water available ad libitum. All animals were examined and weighed daily during drug treatment and experimental protocols. All procedures were carried out by individuals retaining the appropriate authorisation from the Irish Government Health Products Regulatory Authority. Furthermore, the study protocol was approved by the Animal Research Ethics Committee of University College Dublin, Ireland. […]

[3] = cohort two, CBD 30 mg/kg, THC 0 mg/kg p.o.
[4] = cohort two, CBD 60 mg/kg, THC 0 mg/kg p.o.
[5] = study one, CBD 10 mg/kg, vs VPA/VEH
[6] = study one, CBD 30 mg/kg, vs VPA/VEH
[7] = study one, CBD 60 mg/kg, vs VPA/VEH
[8] = cohort one, risperidone 0.125 mg/kg i.p.
[9] = study one, risperidone 0.125 mg/kg i.p.
[10] = study one, risperidone 0.125 mg/kg

C=C(C)[C@@H]1CCC(C)=C[C@H]1c1c(O)cc(CCCCC)cc1O [CBD, cannabidiol]
+: bottle brush irritability (rat VPA model of autism [1]; cohort one, CBD 30 mg/kg p.o.) | bottle brush irritability (rat VPA model of autism [1]; cohort one, CBD 60 mg/kg p.o.) | bottle brush irritability (rat VPA model of autism [1]; [4]) | play behaviour (rat VPA model of autism [2]; cohort one, CBD 60 mg/kg p.o.) | play behaviour (rat VPA model of autism [2]; [4])
significantly attenuated: latency to engage in mounting play behaviour (delay) (rat VPA model of autism [2]; [5]) | latency to engage in mounting play behaviour (delay) (rat VPA model of autism [2]; [6]) | latency to engage in mounting play behaviour (delay) (rat VPA model of autism [2]; [7]) | reduction in social play duration (rat VPA model of autism [2]; [7]) | reduction in social play duration (rat VPA model of autism [2]; study two, CBD 60 mg/kg, vs VPA/VEH)
reversed: decrease in duration of mounting behaviour (rat VPA model of autism [2]; [7]) | decrease in duration of mounting behaviour (rat VPA model of autism [2]; study two, CBD 60 mg/kg)
significantly reduced: increase in aggressive responses, bottle brush (rat VPA model of autism [1]; [5]) | irritability score (combined aggressive and defensive behaviours) (rat VPA model of autism [1]; [5]) | irritability score (combined aggressive and defensive behaviours) (rat VPA model of autism [1]; [6]) | increase in aggressive responses, bottle brush (rat VPA model of autism [1]; [7]) | irritability score (combined aggressive and defensive behaviours) (rat VPA model of autism [1]; [7]) | increase in aggressive responses, bottle brush (rat VPA model of autism [1]; study two, CBD 60 mg/kg) | irritability score (combined aggressive and defensive behaviours) (rat VPA model of autism [1]; study two, CBD 60 mg/kg)
ameliorated: decrease in frequency of mounting behaviour (rat VPA model of autism [2]; [7])
without effect: increase in aggressive responses, bottle brush (rat VPA model of autism [1]; study two, CBD 30 mg/kg) | irritability score (combined aggressive and defensive behaviours) (rat VPA model of autism [1]; study two, CBD 30 mg/kg) | reduction in social play duration (rat VPA model of autism [2]; study two, CBD 30 mg/kg)
X (X = no effect): Mount Duration (sec) (rat VPA model of autism [2]; study one, CBD 10 mg/kg) | Mount Frequency (rat VPA model of autism [2]; study one, CBD 10 mg/kg) | Social Play Duration (sec) (rat VPA model of autism [2]; study one, CBD 10 mg/kg) | Social Play Frequency (rat VPA model of autism [2]; study one, CBD 10 mg/kg) | Social Play Latency (sec) (rat VPA model of autism [2]; study one, CBD 10 mg/kg) | Mount Duration (sec) (rat VPA model of autism [2]; study one, CBD 30 mg/kg) | Mount Frequency (rat VPA model of autism [2]; study one, CBD 30 mg/kg) | Social Play Duration (sec) (rat VPA model of autism [2]; study one, CBD 30 mg/kg) | Social Play Frequency (rat VPA model of autism [2]; study one, CBD 30 mg/kg) | Social Play Latency (sec) (rat VPA model of autism [2]; study one, CBD 30 mg/kg) | Social Play Frequency (rat VPA model of autism [2]; study one, CBD 60 mg/kg) | Social Play Latency (sec) (rat VPA model of autism [2]; study one, CBD 60 mg/kg) | Mount Duration (sec) (rat VPA model of autism [2]; study two, CBD alone 30 mg/kg) | Mount Frequency (rat VPA model of autism [2]; study two, CBD alone 30 mg/kg) | Mount Latency (sec) (rat VPA model of autism [2]; study two, CBD alone 30 mg/kg) | Social Play Duration (sec) (rat VPA model of autism [2]; study two, CBD alone 30 mg/kg) | Social Play Frequency (rat VPA model of autism [2]; study two, CBD alone 30 mg/kg) | Social Play Latency (sec) (rat VPA model of autism [2]; study two, CBD alone 30 mg/kg) | Mount Frequency (rat VPA model of autism [2]; study two, CBD alone 60 mg/kg) | Mount Latency (sec) (rat VPA model of autism [2]; study two, CBD alone 60 mg/kg) | Social Play Frequency (rat VPA model of autism [2]; study two, CBD alone 60 mg/kg) | Social Play Latency (sec) (rat VPA model of autism [2]; study two, CBD alone 60 mg/kg)
Ø: bottle brush irritability (rat VPA model of autism [1]; cohort one, CBD 10 mg/kg p.o.) | bottle brush irritability (rat VPA model of autism [1]; [3]) | play behaviour (rat VPA model of autism [2]; cohort one, CBD 10 mg/kg p.o.) | play behaviour (rat VPA model of autism [2]; cohort one, CBD 30 mg/kg p.o.) | play behaviour (rat VPA model of autism [2]; [3])

Cc1nc2n(c(=O)c1CCN1CCC(c3noc4cc(F)ccc34)CC1)CCCC2 [Risperidone, risperidone]
X (X = no effect): Mount Duration (sec) (rat VPA model of autism [2]; [10]) | Mount Frequency (rat VPA model of autism [2]; [10]) | Social Play Duration (sec) (rat VPA model of autism [2]; [10]) | Social Play Frequency (rat VPA model of autism [2]; [10]) | Social Play Latency (sec) (rat VPA model of autism [2]; [10])
significantly reduced: increase in aggressive responses, bottle brush (rat VPA model of autism [1]; [9]) | irritability score (combined aggressive and defensive behaviours) (rat VPA model of autism [1]; [9])
without effect: any other measure of play or social interaction in juvenile animals (rat VPA model of autism [2]; risperidone 0.125 mg/kg)
Ø: play behaviour (rat VPA model of autism [2]; [8])
+: bottle brush irritability (rat VPA model of autism [1]; [8])
